Assay results: patent US20090291942A1, “IMIDAZO PYRIDINE DERIVATIVES” (priority 2008, published 2009)
pIC50: −log10 of the molar value. Structures can show the parent of a compound that is named as a salt.

Tests used:
human GPR4 = target: T1, human GPR4 (Homo sapiens, UniProt P46093); experiment: Cell-based assay for human GPR4 activity (pH-induced cAMP formation, HTRF); settings: HeLa cells stably expressing human GPR4, pH-induced cAMP formation
T1 construct: expressed in transfected cells
In short: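 HeLa cells stably expressing human GPR4, pre-incubated 15 min at room temperature with compound in pH 8 buffer containing 2 mM IBMX. Buffer B added to set the final stimulation pH, then a further 15 min at room temperature; cAMP read by HTRF.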

[1] = test system: VEGF-induced angiogenesis; experiment: GPR4 activity in VEGF-induced angiogenesis (angiogenesis growth factor implant model); assay type: in vivo; settings: mice, 10 mg/kg (qd) po, chamber tissue weighed on 4th day after implantation
Description: The functional activity of GPR4 was determined in the angiogenesis growth factor implant model. Porous tissue chambers made of perfluoro-alkoxy-Teflon were filled with 0.8% agar and 20 U/ml heparin supplemented with or without 8 μg/ml recombinant human VEGF. The solutions were maintained at 39° C. prior to the filling procedure. Mice were anesthetized using 3% isoflurane inhalation. For subcutaneous implantation, a small skin incision was made at the base of the tail to allow the insertion of an implant trocar. The chamber was implanted under aseptic conditions through the small incision onto the back of the animal. The skin incision was closed by wound clips. On the 4th day after implantation, animals were sacrificed using CO2. Chambers were excised and the vascularized fibrous tissue formed around each implant carefully removed and weighed. Body weight was used to monitor the general condition of the mice. The compounds were applied po at the day of the chamber implantation.

[2] = test system: mouse antigen-induced arthritis; experiment: Mouse antigen-induced arthritis model; assay type: in vivo; settings: female OFA-1 mice, 50 mg/kg (bid) po from day 0 for 7 days, R/L knee swelling ratio AUC vs control
Description: c) GPR4 Activity in Mouse Antigen-Induced Arthritis Model
Female OFA-1 mice were sensitized i.d. on the back at two sites to methylated bovine serum albumin (mBSA) homogenize 1:1 with complete Freund's adjuvant on days—21 and —14 (0.1 ml containing 1 mg/ml mBSA). On day 0, the right knee receives 10 μl of 10 mg/ml mBSA in 5% glucose solution (antigen-injected knee), while the left knee receives 10 μl of 5% glucose solution alone (vehicle-injected knee). The diameters of the left and right knees were then measured using callipers immediately after the intra-articular injections and again on days 2, 4, 7, 9, 11 and 14. Vehicle and compounds were applied po starting at day 0 for 7 days. Right knee swelling was evaluated relative to left knee swelling, and the R/L knee swelling ratio plotted against time to give area under the curve (AUC) graphs for control and treatment groups. The percentage inhibition of the individual treatment group AUCs were calculated vs the control group AUC (0% inhibition) using an excel spreadsheet. On day 7, the mice were killed by CO2 inhalation and the right and left knees removed and processed for histological analysis.

T1 sequence (P46093 whole entry): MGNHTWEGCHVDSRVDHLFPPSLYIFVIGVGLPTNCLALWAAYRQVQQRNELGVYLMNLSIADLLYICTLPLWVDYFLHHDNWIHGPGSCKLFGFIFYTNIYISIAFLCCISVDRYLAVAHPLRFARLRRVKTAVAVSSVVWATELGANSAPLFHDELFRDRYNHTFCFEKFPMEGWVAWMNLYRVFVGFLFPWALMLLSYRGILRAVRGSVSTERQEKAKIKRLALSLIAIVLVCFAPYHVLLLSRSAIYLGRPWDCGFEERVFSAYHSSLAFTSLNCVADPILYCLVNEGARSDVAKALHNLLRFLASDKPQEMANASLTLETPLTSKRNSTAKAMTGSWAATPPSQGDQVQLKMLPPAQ

`CCc1nc2c(C)cc(C)nc2n1Cc1ccc(/C=C/CN2CCC(N3CCCCC3)CC2)cc1` [Example 33, 1′-{(E)-3-[4-(2-Ethyl-5,7-dimethyl-imidazo[4,5-b]pyridin-3-ylmethyl)-phenyl]-allyl}-[1,4′]bipiperidinyl dihydrochloride] was tested, and the pIC50 (human GPR4) was 7.15, the Δ tissue weight [1] was 45% and the Δ swelling ratio [2] was 59%.
